Measured values reported in patent US12559529B2, “NPY2 receptor agonists” (Boehringer Ingelheim International GmbH, priority 2019, dated 2026).
*1 amine or outer side, *2 acyl side, *3 side chain or, on linkers, in order; H or OH if unused. Where a SMILES comes first, the peptide text is derived from it. Side-chain parts run from the residue outwards. The star is where a group is joined. C18 diacid = O=C(O)CCCCCCCCCCCCCCCCC(=O)*; γGlu = O=C(O)[C@H](CCC(=O)[*:2])N[*:1]; Isovaleryl = CC(C)CC(=O)*; AEEA = NCCOCCOCC(=O)O

Target: T1, Human Neuropeptide Y2 Receptor (Homo sapiens, UniProt P49146)
T1 construct: purchased CHEMICON HTS066M
T1 sequence (P49146 1-381): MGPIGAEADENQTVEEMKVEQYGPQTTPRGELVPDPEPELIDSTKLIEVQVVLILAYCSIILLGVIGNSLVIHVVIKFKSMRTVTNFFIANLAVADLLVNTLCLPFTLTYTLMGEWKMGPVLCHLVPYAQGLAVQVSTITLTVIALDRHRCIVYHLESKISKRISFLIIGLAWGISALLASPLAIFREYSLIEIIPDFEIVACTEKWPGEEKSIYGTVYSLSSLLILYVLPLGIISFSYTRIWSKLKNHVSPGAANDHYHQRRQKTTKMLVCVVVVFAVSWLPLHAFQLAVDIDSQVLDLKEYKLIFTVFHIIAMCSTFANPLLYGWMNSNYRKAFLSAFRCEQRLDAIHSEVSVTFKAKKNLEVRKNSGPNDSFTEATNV
Test: Radioligand binding competition assay (RLB)
Settings: Table 3; human 125I-PYY (1-36) 0.02 nM, Y2 receptor membranes; read-out: Ki
Procedure, shortened: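 Filtration format; Y2R membrane prep 0.5 μg/well; buffer 50 mM HEPES/5 mM MgCl2/1 mM CaCl2/0.2% ovalbumin pH 7.4; 2 h RT, shaking. Harvest on PEI-soaked GF/C, ice-cold HEPES/500 mM NaCl washes, scintillation count. IC50 by nonlinear fit.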

Row | Structure (SMILES) | Ki [nM]
1 | CC(C)CC(=O)N[C@@H](C)C(=O)N1CCC[C@H]1C(=O)N[C@@H](CCC(=O)O)C(=O)N[C@@H](CCCCNC(=O)COCCOCCNC(=O)COCCOCCNC(=O)CC[C@H](NC(=O)CCCCCCCCCCCCCCCCC(=O)O)C(=O)O)C(=O)N1CCC[C@H]1C(=O)N[C@@H](CCC(=O)O)C(=O)N[C@@H](C)C(=O)N1CCC[C@H]1C(=O)N[C@@H](C)C(=O)N[C@@H](CO)C(=O)N1CCC[C@H]1C(=O)N[C@@H](CCC(=O)O)C(=O)N[C@@H](CCC(=O)O)C(=O)N[C@@H](CC(C)C)C(=O)N[C@@H](CCC(N)=O)C(=O)N[C@@H](CCCNC(=N)N)C(=O)N[C@@H](Cc1ccc(O)cc1)C(=O)N[C@@H](Cc1ccc(O)cc1)C(=O)N[C@H](C(=O)N[C@@H](CO)C(=O)N[C@@H](CC(C)C)C(=O)N[C@@H](CCCNC(=N)N)C(=O)N[C@@H](Cc1c[nH]cn1)C(=O)N[C@@H](Cc1ccc(O)cc1)C(=O)N[C@@H](Cc1ccc(O)cc1)C(=O)N[C@@H](CC(N)=O)C(=O)N[C@@H](Cc1c[nH]c2ccccc12)C(=O)N[C@@H](CC(C)C)C(=O)N[C@H](C(=O)N[C@@H](CCCNC(=N)N)C(=O)N[C@@H](CCC(N)=O)C(=O)N[C@@H](CCCNC(=N)N)C(=O)N[C@@H](Cc1ccc(O)cc1)C(N)=O)[C@@H](C)O)C(C)C [Compound 43, N{alpha-4}-(3-methylbutanoyl)-N{epsilon-7}-[2-(2-{2-[2-(2-{2-[(4S)-4-carboxy-4-(17-carboxyheptadecanamido)butanamido]ethoxy}ethoxy)acetamido]ethoxy}ethoxy)acetamido]-[4A,7K,9E,10A,11P,18Q,22V,28Y,30W,31L]hPYY (4-36)] (Isovaleryl-APEK([AEEA-AEEA-γGlu-C18 diacid])PEAPASPEELQRYYVSLRHYYNWLTRQRY-NH2) | 0.4
2 | CC[C@H](C)[C@H](NC(=O)[C@H](Cc1c[nH]c2ccccc12)NC(=O)[C@H](CC(N)=O)NC(=O)[C@H](Cc1ccc(O)cc1)NC(=O)[C@H](Cc1ccc(O)cc1)NC(=O)[C@H](Cc1c[nH]cn1)NC(=O)[C@H](CCCNC(=N)N)NC(=O)[C@H](CC(C)C)NC(=O)[C@H](CO)NC(=O)[C@@H](NC(=O)[C@H](Cc1ccc(O)cc1)NC(=O)[C@H](Cc1ccc(O)cc1)NC(=O)[C@H](CCCNC(=N)N)NC(=O)[C@H](CCC(N)=O)NC(=O)[C@H](CC(C)C)NC(=O)[C@H](CCC(=O)O)NC(=O)[C@H](CCC(=O)O)NC(=O)[C@@H]1CCCN1C(=O)[C@H](CO)NC(=O)[C@H](C)NC(=O)[C@H](CCC(=O)O)NC(=O)[C@H](CCC(=O)O)NC(=O)[C@H](CCC(=O)O)NC(=O)[C@@H]1CCCN1C(=O)[C@H](CCCCNC(=O)COCCOCCNC(=O)COCCOCCNC(=O)CC[C@H](NC(=O)CCCCCCCCCCCCCCCCC(=O)O)C(=O)O)NC(=O)[C@H](CCC(=O)O)NC(=O)[C@@H]1CCCN1C(=O)[C@H](C)NC(=O)CC(C)C)C(C)C)C(=O)N[C@H](C(=O)N[C@@H](CCCNC(=N)N)C(=O)N[C@@H](CCC(N)=O)C(=O)N[C@@H](CCCNC(=N)N)C(=O)N[C@@H](Cc1ccc(O)cc1)C(N)=O)[C@@H](C)O [Compound 44, N{alpha-4}-(3-methylbutanoyl)-N{epsilon-7}-[2-(2-{2-[2-(2-{2-[(4S)-4-carboxy-4-(17-carboxyheptadecanamido)butanamido]ethoxy}ethoxy)acetamido]ethoxy}ethoxy)acetamido]-[4A,7K,9E,11E,18Q,22V,28Y,30W,31I]hPYY (4-36)] | 4.44
3 | CC(C)CC(=O)N[C@@H](C)C(=O)N1CCC[C@H]1C(=O)N[C@@H](CCC(=O)O)C(=O)N[C@@H](CCCCNC(=O)COCCOCCNC(=O)COCCOCCNC(=O)CC[C@H](NC(=O)CCCCCCCCCCCCCCCCC(=O)O)C(=O)O)C(=O)N1CCC[C@H]1C(=O)N[C@@H](CCC(=O)O)C(=O)N[C@@H](CCC(=O)O)C(=O)N[C@@H](CCC(=O)O)C(=O)N[C@@H](C)C(=O)N[C@@H](CO)C(=O)N1CCC[C@H]1C(=O)N[C@@H](CCC(=O)O)C(=O)N[C@@H](CO)C(=O)N[C@@H](CC(C)C)C(=O)N[C@@H](CCC(N)=O)C(=O)N[C@@H](CCCNC(=N)N)C(=O)N[C@@H](Cc1ccc(O)cc1)C(=O)N[C@@H](Cc1ccc(O)cc1)C(=O)N[C@H](C(=O)N[C@@H](CO)C(=O)N[C@@H](CC(C)C)C(=O)N[C@@H](CCCNC(=N)N)C(=O)N[C@@H](Cc1c[nH]cn1)C(=O)N[C@@H](Cc1ccc(O)cc1)C(=O)N[C@@H](Cc1ccc(O)cc1)C(=O)N[C@@H](CC(N)=O)C(=O)N[C@@H](Cc1c[nH]c2ccccc12)C(=O)N[C@@H](CC(C)C)C(=O)N[C@H](C(=O)N[C@@H](CCCNC(=N)N)C(=O)N[C@@H](CCC(N)=O)C(=O)N[C@@H](CCCNC(=N)N)C(=O)N[C@@H](Cc1ccc(O)cc1)C(N)=O)[C@@H](C)O)C(C)C [Compound 45, N{alpha-4}-(3-methylbutanoyl)-N{epsilon-7}-[2-(2-{2-[2-(2-{2-[(4S)-4-carboxy-4-(17-carboxyheptadecanamido)butanamido]ethoxy}ethoxy)acetamido]ethoxy}ethoxy)acetamido]-[4A,7K,9E,11E,16S,18Q,22V,28Y,30W,31L]hPYY (4-36)] (Isovaleryl-APEK([AEEA-AEEA-γGlu-C18 diacid])PEEEASPESLQRYYVSLRHYYNWLTRQRY-NH2) | 3.97
4 | CC(C)CC(=O)N[C@@H](C)C(=O)N1CCC[C@H]1C(=O)N[C@@H](CCC(=O)O)C(=O)N[C@@H](CCCCNC(=O)COCCOCCNC(=O)COCCOCCNC(=O)CC[C@H](NC(=O)CCCCCCCCCCCCCCCCC(=O)O)C(=O)O)C(=O)N1CCC[C@H]1C(=O)N1CCC[C@H]1C(=O)N[C@@H](C)C(=O)N[C@@H](CC(=O)O)C(=O)N[C@@H](C)C(=O)N[C@@H](CO)C(=O)N1CCC[C@H]1C(=O)N[C@@H](CCC(=O)O)C(=O)N[C@@H](CCC(=O)O)C(=O)N[C@@H](CC(C)C)C(=O)N[C@@H](CCC(N)=O)C(=O)N[C@@H](CCCNC(=N)N)C(=O)N[C@@H](Cc1ccc(O)cc1)C(=O)N[C@@H](Cc1ccc(O)cc1)C(=O)N[C@H](C(=O)N[C@@H](CO)C(=O)N[C@@H](CC(C)C)C(=O)N[C@@H](CCCNC(=N)N)C(=O)N[C@@H](Cc1c[nH]cn1)C(=O)N[C@@H](Cc1ccc(O)cc1)C(=O)N[C@@H](Cc1ccc(O)cc1)C(=O)N[C@@H](CC(N)=O)C(=O)N[C@@H](Cc1c[nH]c2ccccc12)C(=O)N[C@@H](CC(C)C)C(=O)N[C@H](C(=O)N[C@@H](CCCNC(=N)N)C(=O)N[C@@H](CCC(N)=O)C(=O)N[C@@H](CCCNC(=N)N)C(=O)N[C@@H](Cc1ccc(O)cc1)C(N)=O)[C@@H](C)O)C(C)C [Compound 47, N{alpha-4}-(3-methylbutanoyl)-N{epsilon-7}-[2-(2-{2-[2-(2-{2-[(4S)-4-carboxy-4-(17-carboxyheptadecanamido)butanamido]ethoxy}ethoxy)acetamido]ethoxy}ethoxy)acetamido]-[4A,7K,9P,10A,18Q,22V,28Y,30W,31L]hPYY (4-36)] | 0.42
